# Test results published in patent US10913757B2, “Hydroxycinnamic derivatives, methods and uses thereof” (UNIVERSIDADE DO PORTO, priority 2016, dated 2021).
# Tests used:
# [1] = test system: rat liver mitochondria (RLM); assay: Mitochondrial respiration of isolated RLM (Clark-type oxygen electrode); type: biochemical
# Description: In an embodiment, and as an example, AntiOxCINs and MitoQ toxicity effects on the mitochondrial bioenergetics, namely on RLM ΔΨ and mitochondrial respiration parameters, were measured. The […] represents the main component of the electrochemical gradient generated by mitochondrial respiration and accounts for more than 90% of the total available energy. For mitochondrial respiration assays, glutamate/malate (for complex I) and succinate (for complex II) were used as substrates. In addition, the mitochondrial oxidative phosphorylation coupling index, known as respiratory control ratio (RCR, state 3/state 4 respiration) and ADP/O index (the coupling between ATP synthesis and oxygen consumption) were also calculated. AntiOxCINs and MitoQ were tested at antioxidant-relevant concentrations, with 10 μM being the highest concentration.
# In an embodiment, the evaluation of AntiOxCINs functional mitochondrial toxicity profile was performed in rat liver mitochondria (RLM). […] The protein concentration was determined by the biuret assay using BSA as a standard.
# In an embodiment, the evaluation of AntiOxCINs effect on mitochondrial respiration was performed as follows: the respiration of isolated RLM was evaluated polarographically with a Clark-type oxygen electrode, connected to a suitable recorder in a 1 mL thermostated water-jacketed chamber with magnetic stirring, at 37° C.^1. […] Increasing concentrations of AntiOxCINs (2.5-10 μM) were added to the reaction medium containing respiratory substrates glutamate/malate (10 mM and 5 mM respectively) or succinate (5 mM) and RLM (1 mg) and allowed to incubate for a 5 min period prior to the assay. State 2 was considered as the respiration during the 5 min incubation time with AntiOxCINs. […] State 4 was determined after ADP phosphorylation finished. Subsequent addition of oligomycin (2 μg/ml) inhibited ATP-synthase and originated the oligomycin-inhibition respiration state. Finally, 1 μM FCCP was added to induce uncoupled respiration.
# [2] = GO radical scavenging activity (TAC assay); type: biochemical; conditions: ethanol, absorbance 428 nm
# Source text: In an embodiment, the AntiOxCINs antioxidant ranking activity hierarchy was established by in vitro non-cell methods. The selected total antioxidant capacity (TAC) assays (DPPH, ABTS and GO) involved the spectrophotometric measurement of the radical absorbance decrease as a result of an in situ radical deactivation by an antioxidant. Compounds with higher antioxidant activity display lower IC50 values. […] This decrease was attenuated/ameliorated by the increment of the spacer length and/or the introduction of additional hydroxyl group in the aromatic ring.
# The radical scavenging activity of AntiOxCINs was evaluated by means of total antioxidant capacity assays based on DPPH., ABTS.^+ and GO. radicals. All these methods involved the spectrophotometric measurement of the absorbance decrease resulting from radical (DPPH., ABTS.^+ or GO.) deactivation with an antioxidant. The results were expressed in IC50, which is defined as the minimum antioxidant concentration necessary to reduce the amount of radical by 50%. Antioxidant assays were performed in a multiplate reader (Powerwave XS Microplate Reader) of Bio-Tech instruments.
# In an embodiment, the GO′ scavenging activity was evaluated as follows: solutions of test compounds with concentrations from 5 μM to 75 μM were prepared in ethanol. An ethanolic solution of 5 mM GO′ was prepared and diluted to reach the absorbance of 1.00±0.02 at 428 nm. The addition (20 μL) in triplicate of compound solution to GO. solution (180 μL) was followed by absorbance measurement at 428 nm over 30 minutes, in the dark, at room temperature. […] Dose-response curves were established for the determination of IC50 values. Data are means±SEM of three independent experiments.
# [3] = Redox properties by differential pulse and cyclic voltammetry; type: physicochemical; conditions: for reversibility of the oxidation reaction: cyclic voltammetry, physiological pH; for Ep (redox potential): physiological pH (7.4), voltammetry
# Description: In an embodiment, and as an example, AntiOxCINs redox properties were evaluated (Table 1). Redox potentials are correlated with the ability of an antioxidant to donate a hydrogen atom and/or an electron to a free radical.
# However, for pyrogallol derivatives (AntiOxCIN4, AntiOxCIN5 and AntiOxCIN7), a significant decrease in redox potentials was observed (Ep=0.034-0.057 V) (Table 1).
# The voltammograms presented a diffusion peak and an adsorption post-peak at a more anodic potential correspondent to the oxidation of dissolved and adsorbed forms of the compounds, respectively. The oxidation waves can be related to the oxidation process of the pyrogallol moiety. The cyclic voltammograms also show the presence of two overlapped anodic peaks. The anodic peaks appeared to correspond to irreversible processes as any distinct reduction wave was not seen on the cathodic sweep. The existence of the additional phenolic group in the pyrogallol systems, when compared with the catechol ones, seems to influence the stabilization of the semiquinone intermediate and in turn the oxidative mechanism.
# In an embodiment, the electrochemical analytical data was obtained using a computer controlled potentiostat Autolab PGSTAT302N (Metrohm Autolab, Utrecht, Netherlands). Generally, cyclic voltammetry (CV) data was acquired at a scan rate of 50 mVs^−1. Differential pulse voltammetry (DPV) results were acquired at a step potential of 4 mV, pulse amplitude of 50 mV and scan rate of 8 mVs^−1. The electrochemical signals were monitored by the General Purpose Electrochemical System (GPES) version 4.9, software package. All electrochemical experiments were performed at room temperature in an electrochemical cell that was placed in a Faraday cage in order to minimize the contribution of background noise to the analytical signal.
# In an embodiment, the process of evaluation of AntiOxCINs redox properties was conducted as follows: stock solutions of each compound (10 mM) were prepared by dissolving the appropriate amount in ethanol. The voltammetric working solutions were prepared in the electrochemical cell, at a final concentration of 0.1 mM. The […] supporting electrolyte was prepared by diluting […] to 100 mL. Voltammetric data was acquired in a three-electrode system consisting of a glassy carbon electrode (GCE, d=2 mm) as working electrode, a counter electrode of platinum wire and a saturated Ag/AgCl reference electrode. In an embodiment, the evaluation of AntiOxCINs lipophilic properties was performed as follows: the electrochemical cell was a four-electrode system with arrays of micro liquid-liquid interfaces (μlTIES) containing two Ag/AgCl reference electrodes and two counter electrodes of Pt, one in each phase. The microporous membrane was sealed with a fluorosilicone sealant (Dow Corning 730) onto a glass cylinder which was filled with 4.0 mL of the aqueous phase, where the aliquots of AntiOxCINs solutions were added. The membrane was then immersed into the organic phase contained in the cell. The organic phase reference solution (a 2 mM BTPPACI+2 mM NaCl aqueous solution) was mechanically stabilized The aqueous supporting electrolyte solution was a Tris-HCl buffer 10 mM pH 7.0.
Ep (redox potential) [3] [V],SMILES,"effect on state 3 respiration ([1]; all tested concentrations (2.5-10 μM), FIG. 6B-H)","ADP/O ([1]; glutamate/malate, 2.5 μM)","RCR (respiratory control ratio, state 3/state 4) ([1]; glutamate/malate, 2.5 μM)","ADP/O ([1]; glutamate/malate, 5 μM)","RCR (respiratory control ratio, state 3/state 4) ([1]; glutamate/malate, 5 μM)","ADP/O ([1]; glutamate/malate, 10 μM)","RCR (respiratory control ratio, state 3/state 4) ([1]; glutamate/malate, 10 μM)","ADP/O ([1]; succinate, 2.5 μM)","RCR (respiratory control ratio, state 3/state 4) ([1]; succinate, 2.5 μM)","ADP/O ([1]; succinate, 5 μM)","RCR (respiratory control ratio, state 3/state 4) ([1]; succinate, 5 μM)","ADP/O ([1]; succinate, 10 μM)","RCR (respiratory control ratio, state 3/state 4) ([1]; succinate, 10 μM)",IC50 [2] [µM],reversibility of the oxidation reaction [3],"Ep (redox potential) ([3]; listed as AntiOxClN7, methanesulfonate) [V]",toxicity toward the mitochondrial bioenergetic apparatus ([1]; RLM)
,"CS(=O)(=O)[O-].O=C(/C=C/c1cc(O)c(O)c(O)c1)NCCCCCCCCCC[P+](c1ccccc1)(c1ccccc1)c1ccccc1 [AntiOxCIN7, (E)-(10-(3-(3,4,5-trihydroxyphenyl)acrylamido)decyl)triphenylphosphonium methanesulfonate]",increase,2.8 ± 0.3,3.6 ± 0.2,2.4 ± 0.1,3.5 ± 0.3,2.6 ± 0.1,3.3 ± 0.3,1.8 ± 0.2,4.1 ± 0.4,1.8 ± 0.2,3.1 ± 0.2,1.7 ± 0.2,3.7 ± 0.3,2.5,irreversible oxidation reaction,0.057,
0.168,"O=C(O)/C=C/c1ccc(O)c(O)c1 [Caffeic acid, caffeic acid, reference compound]",,,,,,,,,,,,,,3.4,reversible reaction,,low toxicity
